Source: article PMC12406721, “Chronic integrated stress response causes dysregulated cholesterol synthesis in white matter disease” (JCI Insight, 2025)

What was measured:
[1] = target: T1, eIF2B (Mus musculus, UniProt Q61749+Q99LD9); assay: 2BAct dose response in N208Y cells (read-out only in supplement); assay type: cell-based; conditions: activator, cell line not restated, read-out not told in main text
T1 construct: gene Eif2b2; endogenous complex in MIN-6 cells or their lysate; decamer α2β2δ2(γε)2; alpha subunit strongly depleted in N208Y cells (mostly octamer β2δ2γ2ε2); with Translation initiation factor eIF2B subunit alpha; Translation initiation factor eIF2B subunit gamma; Translation initiation factor eIF2B subunit epsilon

[2] = target: T2, eIF2B-α (Homo sapiens, UniProt Q14232); assay: NanoDSF thermal unfolding; assay type: binding; conditions: stabilises; concentration not told in main text
T2 construct: gene EIF2B1; purified recombinant alpha subunit, homodimer
T2 sequence (Q14232 1-305): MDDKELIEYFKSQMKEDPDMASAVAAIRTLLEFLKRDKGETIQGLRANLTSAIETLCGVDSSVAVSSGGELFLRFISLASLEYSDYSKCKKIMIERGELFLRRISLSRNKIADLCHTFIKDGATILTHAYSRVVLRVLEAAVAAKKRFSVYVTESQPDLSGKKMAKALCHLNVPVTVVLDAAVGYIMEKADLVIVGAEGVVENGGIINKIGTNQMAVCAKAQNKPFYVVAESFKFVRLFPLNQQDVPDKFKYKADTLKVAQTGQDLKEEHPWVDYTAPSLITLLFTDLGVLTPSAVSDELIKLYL

T1 sequence (Q99LD9 whole entry): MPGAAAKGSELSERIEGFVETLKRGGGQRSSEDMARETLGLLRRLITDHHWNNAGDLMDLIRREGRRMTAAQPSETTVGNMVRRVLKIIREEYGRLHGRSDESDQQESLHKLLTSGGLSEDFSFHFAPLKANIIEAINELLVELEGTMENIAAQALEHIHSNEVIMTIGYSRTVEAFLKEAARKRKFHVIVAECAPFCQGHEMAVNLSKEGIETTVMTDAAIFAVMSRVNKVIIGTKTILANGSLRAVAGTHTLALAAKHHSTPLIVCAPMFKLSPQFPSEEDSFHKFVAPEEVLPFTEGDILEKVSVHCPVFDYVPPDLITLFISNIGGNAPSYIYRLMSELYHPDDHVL
T1 sequence (Q61749 2-524): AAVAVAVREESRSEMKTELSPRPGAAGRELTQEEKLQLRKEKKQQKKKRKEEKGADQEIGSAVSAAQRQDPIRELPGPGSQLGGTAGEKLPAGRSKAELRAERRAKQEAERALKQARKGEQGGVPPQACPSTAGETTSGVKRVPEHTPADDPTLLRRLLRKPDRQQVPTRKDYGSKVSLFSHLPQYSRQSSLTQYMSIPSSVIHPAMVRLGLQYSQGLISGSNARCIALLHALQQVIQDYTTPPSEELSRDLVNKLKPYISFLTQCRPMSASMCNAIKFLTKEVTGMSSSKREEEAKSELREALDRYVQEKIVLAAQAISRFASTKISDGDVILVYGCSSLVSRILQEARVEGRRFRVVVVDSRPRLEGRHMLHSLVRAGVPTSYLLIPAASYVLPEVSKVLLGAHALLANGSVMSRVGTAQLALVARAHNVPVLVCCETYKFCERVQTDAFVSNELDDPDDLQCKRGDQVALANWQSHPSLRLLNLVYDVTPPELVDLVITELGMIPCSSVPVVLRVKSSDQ
T1 sequence (Q99LC8 whole entry N208Y partner): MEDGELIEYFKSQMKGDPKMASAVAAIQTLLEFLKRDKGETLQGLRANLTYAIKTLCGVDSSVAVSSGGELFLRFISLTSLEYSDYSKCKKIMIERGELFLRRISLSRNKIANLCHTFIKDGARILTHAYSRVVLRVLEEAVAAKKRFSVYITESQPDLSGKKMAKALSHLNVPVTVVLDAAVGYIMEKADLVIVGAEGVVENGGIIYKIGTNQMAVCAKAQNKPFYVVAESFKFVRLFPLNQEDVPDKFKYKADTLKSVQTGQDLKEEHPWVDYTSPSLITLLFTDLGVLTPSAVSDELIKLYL
T1 sequence (Q8CHW4 whole entry partner): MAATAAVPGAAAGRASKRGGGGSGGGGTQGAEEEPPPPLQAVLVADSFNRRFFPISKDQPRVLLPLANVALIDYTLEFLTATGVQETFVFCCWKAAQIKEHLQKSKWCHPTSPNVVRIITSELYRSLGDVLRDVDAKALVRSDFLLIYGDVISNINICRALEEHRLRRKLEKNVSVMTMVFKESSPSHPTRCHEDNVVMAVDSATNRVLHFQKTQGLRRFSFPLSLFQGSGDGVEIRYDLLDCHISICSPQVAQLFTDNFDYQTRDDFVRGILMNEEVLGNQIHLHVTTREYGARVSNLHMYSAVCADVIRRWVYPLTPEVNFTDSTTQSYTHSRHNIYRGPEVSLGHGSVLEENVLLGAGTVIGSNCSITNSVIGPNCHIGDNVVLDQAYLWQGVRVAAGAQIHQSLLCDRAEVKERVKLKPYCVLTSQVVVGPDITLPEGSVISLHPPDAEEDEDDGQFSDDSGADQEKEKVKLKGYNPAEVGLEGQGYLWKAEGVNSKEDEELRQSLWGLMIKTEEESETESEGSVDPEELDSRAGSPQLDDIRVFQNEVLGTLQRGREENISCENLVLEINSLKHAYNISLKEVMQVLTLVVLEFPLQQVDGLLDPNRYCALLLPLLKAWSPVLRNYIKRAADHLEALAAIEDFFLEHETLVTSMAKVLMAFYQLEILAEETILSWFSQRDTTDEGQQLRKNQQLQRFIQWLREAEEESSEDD

SMILES	EC50 [1]	Tm [2]
O=C(COc1ccc(Cl)c(F)c1)NC12CC(NC(=O)c3cnc(C(F)F)cn3)(C1)C2 [2BAct]	27.8 nM	
O=P(O)(O)OC[C@H]1OC(O)(CO)[C@@H](O)[C@@H]1O (some centres unmarked) [fructose-6-phosphate]		addition of F6P further increased the stability of WT eIF2B-α
